Numbered stars: 1 amine (or outer) side, 2 acyl side, 3 side chain; on linkers, the order of the positions; unused ones are H or OH. Square brackets hold non-standard residues; d marks the D form. Peptide text beside a SMILES is read from it. ξ: configuration not given here. X1 = CSCC[C@H](NC(=N)[C@H](Cc1c[nH]cn1)N[*:1])C(=O)[*:2]; pS = N[C@@H](COP(=O)(O)O)C(=O)O; Ile(3ξ) = CCC(C)[C@H](N)C(=O)O
Tests used:
[1] = Stability of the peptides at 37° C. (HPLC peak area); format: physicochemical; conditions: for 95% of stability (predicted): time to 95% from linear equation; for Stability (%) Linear equation: slope: y = stability %, x = days; for Stability (%): 10% mannitol
Protocol: The stability of the peptide SEQ ID NO: 1 in which the serine at position 10 is phosphorylated and the methionine at position 4 is oxydized (P140(MO)), and the peptide SEQ ID NO: 1 in which the serine at position 10 is phosphorylated (P140) was measured at 37° C., in a solution of 10% (v/v) mannitol. For each peptide, 3 concentrations have been tested: 200, 100 and 50 μg/mL.
At the indicated time, the integrity of P140 and P140(MO) peptides was measured in saline by high-performance liquid chromatography from the area of the peak corresponding to the intact peptide.
Stability is measured by using the HPLC peak surface.

C57BL/6 mice = test: K/B×N serum transfer mouse model of rheumatoid arthritis; format: in vivo
Protocol: The TCR transgenic mice expressing the KRN and the MHC class II A^g7 molecule (K/B×N mice) have developed a severe inflammatory arthritis. The administration of serum of these mice to healthy recipient mice causes inflammatory arthritis over a period of about 15 days with a peak ignition around day 7 post-injection.
Two mouse serum administrations from K/B×N were performed (day 0 and day 2). The injection of serum (100 μl/mouse) is performed by intra-peritoneal (ip) injection in mice C57BL/6 (or B6) for 8 weeks (n=10); untreated mouse (n=10).
The P140 peptide (100 μg/100 μl; iv retro-orbital) was administered as follows:
Curative treatment: Injection at day 1 and day 4, to guide the peak of inflammatory disease. Preventive treatment: Injection at day −7 and day −2. Bleeding S0 (at day 0) is followed by bloodletting conducted every six days to dispose of serum. The study ends when inflammation has returned to its basal level, to around day 20 (see FIG. 21).
During the peak of inflammation, every day the animals are evaluated, and swelling score of articulation is established. It is ranged from 0 to 4 and based on a joint observation of the animal. In practice, this score is given for each leg (4 values) and these values are added together to get a general score that ranges from 0 to 16 (FIG. 22).

MRL/lpr B cells = conditions: cited from earlier work
[2] = tested on: peripheral T cells from lupus patients; conditions: cited from earlier work

## CCC(C)[C@H](NC(=O)[C@H](Cc1ccccc1)NC(=O)[C@H](C)NC(=O)[C@H](Cc1ccc(O)cc1)NC(=O)CNC(=O)[C@H](CCCNC(=N)N)NC(=O)[C@@H]1CCCN1C(=O)[C@H](CCCCN)NC(=O)CNC(=O)[C@H](COP(=O)(O)O)NC(=O)[C@H](CCCNC(=N)N)NC(=O)[C@H](CCCCN)NC(=O)[C@H](CO)NC(=O)[C@H](Cc1ccc(O)cc1)NC(=O)[C@@H](NC(=O)[C@H](CCSC)NC(=N)[C@H](Cc1c[nH]cn1)NC(=O)[C@@H](NC(=O)[C@@H](N)CCCNC(=N)N)C(C)CC)C(C)C)C(=O)N[C@@H](CCC(=O)O)C(=O)N[C@@H](Cc1ccc(O)cc1)C(=O)O (stereo partly shown) [Compound P140] (H-R[Ile(3ξ)][X1]VYSKR[pS]GKPRGYAF[Ile(3ξ)]EY-OH)
[1]; 50 μg/mL
  Stability (%) Linear equation: intercept: 98.299
  95% of stability (predicted): 1 months
  Stability (%) Linear equation: slope: y = −0.099x +
[1]; 100 μg/mL
  Stability (%) Linear equation: intercept: 99.25
  95% of stability (predicted): 2 months
  Stability (%) Linear equation: slope: y = −0.0612x +
[1]; 200 μg/mL
  Stability (%) Linear equation: intercept: 99.535
  95% of stability (predicted): 6 months
  Stability (%) Linear equation: slope: y = −0.0238x +
[1]; 50 μg/mL, day 0
  Stability (%): 100%
[1]; 50 μg/mL, day 20
  Stability (%): 95.5%
[1]; 50 μg/mL, day 40
  Stability (%): 93.2%
[1]; 50 μg/mL, day 60
  Stability (%): 91.5%
[1]; 50 μg/mL, day 80
  Stability (%): 90.3%
[1]; 50 μg/mL, day 100
  Stability (%): 89.6%
[1]; 100 μg/mL, day 0
  Stability (%): 100%
[1]; 100 μg/mL, day 20
  Stability (%): 97.5%
[1]; 100 μg/mL, day 40
  Stability (%): 96.2%
[1]; 100 μg/mL, day 60
  Stability (%): 95.5%
[1]; 100 μg/mL, day 80
  Stability (%): 94.5%
[1]; 100 μg/mL, day 100
  Stability (%): 93.4%
[1]; 200 μg/mL, day 0
  Stability (%): 100%
[1]; 200 μg/mL, day 20
  Stability (%): 98.7%
[1]; 200 μg/mL, day 40
  Stability (%): 98.5%
[1]; 200 μg/mL, day 60
  Stability (%): 97.9%
[1]; 200 μg/mL, day 80
  Stability (%): 97.6%
[1]; 200 μg/mL, day 100
  Stability (%): 97.4%
C57BL/6 mice; curative protocol (P140 day 1 and day 4), from day 2
  Weight loss: 15%
C57BL/6 mice; curative protocol, between day 5 and the end of the study, controls 5%
  Weight gain: 20%
C57BL/6 mice; curative protocol, rear legs
  Inflammation score per leg, maximum: ~1.5
C57BL/6 mice; preventive protocol (P140 day −7 and day −2), day 1 to day 7, controls 10%
  Weight loss: 5%
C57BL/6 mice; preventive protocol, day 0 to day 7, controls about 22%
  Increase in size of joints, right back legs: around 12%
C57BL/6 mice; preventive protocol, day 0 to day 7, controls about 30%
  Increase in size of the joint, left hind paws: about 15%
C57BL/6 mice; preventive protocol, controls 45%
  Increase in size of articulation, left front leg: 20%
C57BL/6 mice; preventive protocol, controls nearly 45%
  Swelling in the joints of right front leg: +20%
C57BL/6 mice; preventive protocol, sum of four legs, controls around 7 (printed day 7)
  General inflammation score, maximum: ≤ 5
MRL/lpr B cells; after P140 treatment (Page et al., 2011)
  Autophagy markers SQSTM1 and MAP1LC3 in MRL/lpr B cells: accumulation
MRL/lpr B cells; after treating mice with P140 peptide (Page et al., 2011; Macri et al.)
  Expression of HSPA8 and LAMP-2A in MRL/lpr B cells: down-regulated
[2]; ex vivo (Monneaux et al., 2005)
  Proliferation of peripheral T cells from lupus patients: does not induce proliferation
[2]; ex vivo, T cells from lupus patients (Monneaux et al., 2005)
  Secretion of regulatory cytokine IL-10 in cell cultures: high levels
